In BindingDB's records for patent WO2025049746 (Eikon Therapeutics, 2025):

Tests used:
[1] = target: Bifunctional 3'-5' exonuclease/ATP-dependent helicase WRN (Homo sapiens, UniProt Q14191); assay: ADP-Glo Kinase Assay
Method: ATPase activity was measured using the ADP-Glo Kinase Assay following the manufacturers recommended protocol.

[2] = target: T1, Bifunctional 3'-5' exonuclease/ATP-dependent helicase WRN [480-1251] (UniProt Q14191); assay: Biochemical Activity Assays
T1 construct: 480-1251
T1 sequence (Q14191 480-1251): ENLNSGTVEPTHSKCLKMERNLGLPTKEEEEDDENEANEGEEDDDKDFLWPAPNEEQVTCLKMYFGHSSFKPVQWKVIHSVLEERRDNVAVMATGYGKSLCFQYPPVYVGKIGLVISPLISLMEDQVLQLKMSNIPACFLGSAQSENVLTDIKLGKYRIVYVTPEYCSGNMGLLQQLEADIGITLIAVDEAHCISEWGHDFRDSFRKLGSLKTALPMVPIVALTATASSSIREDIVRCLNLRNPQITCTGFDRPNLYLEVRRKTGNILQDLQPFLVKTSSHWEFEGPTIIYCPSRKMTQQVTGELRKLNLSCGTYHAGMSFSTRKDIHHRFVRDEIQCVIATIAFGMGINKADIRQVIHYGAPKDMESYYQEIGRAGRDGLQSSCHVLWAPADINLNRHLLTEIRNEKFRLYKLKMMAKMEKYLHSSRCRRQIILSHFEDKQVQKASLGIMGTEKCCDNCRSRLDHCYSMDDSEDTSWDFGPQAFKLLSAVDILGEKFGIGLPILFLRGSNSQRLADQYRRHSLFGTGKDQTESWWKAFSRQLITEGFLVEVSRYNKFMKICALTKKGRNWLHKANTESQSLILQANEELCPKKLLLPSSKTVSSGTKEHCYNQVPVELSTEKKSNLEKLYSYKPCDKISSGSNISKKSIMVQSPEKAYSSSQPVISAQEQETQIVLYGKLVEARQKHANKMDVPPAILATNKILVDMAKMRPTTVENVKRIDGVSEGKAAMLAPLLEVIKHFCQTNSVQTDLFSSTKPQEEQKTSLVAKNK

Sequence of Bifunctional 3'-5' exonuclease/ATP-dependent helicase WRN (Q14191 whole entry): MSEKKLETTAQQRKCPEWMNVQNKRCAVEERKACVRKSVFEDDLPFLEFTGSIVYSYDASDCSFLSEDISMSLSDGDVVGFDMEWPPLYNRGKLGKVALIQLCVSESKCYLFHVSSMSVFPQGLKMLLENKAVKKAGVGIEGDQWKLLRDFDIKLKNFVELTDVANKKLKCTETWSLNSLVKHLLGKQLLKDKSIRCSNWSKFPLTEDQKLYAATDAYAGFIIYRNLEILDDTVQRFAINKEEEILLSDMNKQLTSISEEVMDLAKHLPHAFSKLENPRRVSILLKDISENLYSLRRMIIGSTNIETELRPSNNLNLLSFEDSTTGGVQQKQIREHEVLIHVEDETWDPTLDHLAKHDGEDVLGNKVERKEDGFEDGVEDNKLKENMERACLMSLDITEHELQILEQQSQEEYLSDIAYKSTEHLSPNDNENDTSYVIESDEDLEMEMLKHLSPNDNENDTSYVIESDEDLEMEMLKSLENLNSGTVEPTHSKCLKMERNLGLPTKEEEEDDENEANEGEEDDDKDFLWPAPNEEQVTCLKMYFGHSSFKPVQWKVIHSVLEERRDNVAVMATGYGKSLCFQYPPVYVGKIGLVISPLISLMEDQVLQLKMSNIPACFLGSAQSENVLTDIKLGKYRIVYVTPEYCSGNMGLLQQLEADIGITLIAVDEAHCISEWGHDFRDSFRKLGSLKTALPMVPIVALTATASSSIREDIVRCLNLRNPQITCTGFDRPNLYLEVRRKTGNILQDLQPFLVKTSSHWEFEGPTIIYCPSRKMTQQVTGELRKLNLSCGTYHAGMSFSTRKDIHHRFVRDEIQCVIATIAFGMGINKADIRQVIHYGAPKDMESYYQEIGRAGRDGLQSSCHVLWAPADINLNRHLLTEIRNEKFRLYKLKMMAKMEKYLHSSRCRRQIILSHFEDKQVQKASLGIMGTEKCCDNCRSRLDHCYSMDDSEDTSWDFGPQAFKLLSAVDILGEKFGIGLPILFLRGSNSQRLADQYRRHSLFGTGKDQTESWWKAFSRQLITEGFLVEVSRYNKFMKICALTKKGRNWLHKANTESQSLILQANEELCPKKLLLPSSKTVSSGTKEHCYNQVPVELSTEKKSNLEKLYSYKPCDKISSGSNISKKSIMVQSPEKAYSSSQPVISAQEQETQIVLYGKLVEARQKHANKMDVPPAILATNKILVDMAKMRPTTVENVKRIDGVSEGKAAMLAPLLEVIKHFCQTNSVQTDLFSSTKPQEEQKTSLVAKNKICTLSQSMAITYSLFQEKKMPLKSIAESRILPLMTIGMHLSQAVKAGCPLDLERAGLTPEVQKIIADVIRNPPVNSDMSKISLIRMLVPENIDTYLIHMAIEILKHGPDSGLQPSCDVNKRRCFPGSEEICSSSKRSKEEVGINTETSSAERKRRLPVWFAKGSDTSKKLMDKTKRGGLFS

Row | SMILES | IC50 [1] | IC50 [2]
1 | CCc1c(N2CCN(C(=O)c3ncnc(C)c3O)CC2)c(=O)n2nc(-c3ccc4c(c3)n(C)c(=O)n4C)nc2n1CC(=O)Nc1ccc(C(F)(F)F)cc1Cl [WO2025049746, Example 175] | 52 nM | 30 nM
2 | CCc1c(N2CCN(C(=O)c3ncnc(C)c3O)CC2)c(=O)n2nc(-c3ccn4nccc4c3)nc2n1CC(=O)Nc1ccc(C(F)(F)F)cc1Cl [WO2025049746, Example 176] | 95 nM | 76 nM
3 | CCc1c(N2CCN(C(=O)c3ncnc(C)c3O)CC2)c(=O)n2nc(-c3ccc4c(c3)OC(F)(F)O4)nc2n1CC(=O)Nc1ccc(C(F)(F)F)cc1Cl [WO2025049746, Example 179] | 77 nM | 59 nM
4 | CCc1c(N2CCN(C(=O)c3ncnc(C)c3O)CC2)c(=O)n2nc(-c3ccc4c(c3F)CCO4)nc2n1CC(=O)Nc1ccc(C(F)(F)F)cc1Cl [WO2025049746, Example 180] | 53 nM | 45 nM
5 | CCc1c(N2CCN(C(=O)c3ncnc(C)c3O)CC2)c(=O)n2nc(-c3cc4n(n3)CCC4)nc2n1CC(=O)Nc1ccc(C(F)(F)F)cc1Cl [WO2025049746, Example 183] | 52 nM | 46 nM
6 | CCc1c(N2CCN(C(=O)c3ncnc(C)c3O)CC2)c(=O)n2nc(-c3cc4n(n3)CCCC4)nc2n1CC(=O)Nc1ccc(C(F)(F)F)cc1Cl [WO2025049746, Example 184] | 68 nM | 58 nM
7 | CCc1c(N2CCN(C(=O)c3ncnc(C)c3O)CC2)c(=O)n2nc(-c3ccc4c(c3)C(=O)N(C)C4)nc2n1CC(=O)Nc1ccc(C(F)(F)F)cc1Cl [WO2025049746, Example 186] | 52 nM | 45 nM
8 | CCc1c(N2CCN(C(=O)c3ncnc(C)c3O)CC2)c(=O)n2nc(-c3ccc4c(c3)CCC4(F)F)nc2n1CC(=O)Nc1ccc(C(F)(F)F)cc1Cl [WO2025049746, Example 187] | 170 nM | 75 nM
9 | CCc1c(N2CCN(C(=O)c3ncnc(C)c3O)CC2)c(=O)n2nc(-c3ccc4c(c3)C(=O)NC4)nc2n1CC(=O)Nc1ccc(C(F)(F)F)cc1Cl [WO2025049746, Example 188] | 52 nM | 30 nM
10 | CCc1c(N2CCN(C(=O)c3ncnc(C)c3O)CC2)c(=O)n2nc(-c3ccc4c(c3)CO[C@@H]4C)nc2n1CC(=O)Nc1ccc(C(F)(F)F)cc1Cl [WO2025049746, Example 191] | 53 nM | 44 nM
11 | CCc1c(N2CCN(C(=O)c3ncnc(C)c3O)CC2)c(=O)n2nc(-c3ccc4c(c3)C(C)(C)CO4)nc2n1CC(=O)Nc1ccc(C(F)(F)F)cc1Cl [WO2025049746, Example 193] | 73 nM | 53 nM
12 | CCc1c(N2CCN(C(=O)c3ncnc(C)c3O)CC2)c(=O)n2nc(-c3ccc4c(c3)CC(C)(C)O4)nc2n1CC(=O)Nc1ccc(C(F)(F)F)cc1Cl [WO2025049746, Example 194] | 81 nM | 67 nM
13 | CCc1c(N2CCN(C(=O)c3ncnc(C)c3O)CC2)c(=O)n2nc(-c3ccc4c(c3)CCOC4(C)C)nc2n1CC(=O)Nc1ccc(C(F)(F)F)cc1Cl [WO2025049746, Example 195] | 45 nM | 39 nM
14 | CCc1c(N2CCN(C(=O)c3ncnc(C)c3O)CC2)c(=O)n2nc(-c3ccc4c(c3)CN(C)C4)nc2n1CC(=O)Nc1ccc(C(F)(F)F)cc1Cl [WO2025049746, Example 197] | 50 nM | 52 nM
15 | CCc1c(N2CCN(C(=O)c3ncnc(C)c3O)CC2)c(=O)n2nc(-c3ccc4c(c3)N(C)C(=O)CO4)nc2n1CC(=O)Nc1ccc(C(F)(F)F)cc1Cl [WO2025049746, Example 198] | 48 nM | 33 nM
16 | CCc1c(N2CCN(C(=O)c3ncnc(C)c3O)CC2)c(=O)n2nc(-c3cc4c(cc3C)COC4)nc2n1CC(=O)Nc1ccc(C(F)(F)F)cc1Cl [WO2025049746, Example 203] | 79 nM | 56 nM
17 | CCc1c(N2CCN(C(=O)c3ncnc(C)c3O)CC2)c(=O)n2nc(-c3ccc4c(c3)COC43CN(C)C3)nc2n1CC(=O)Nc1ccc(C(F)(F)F)cc1Cl [WO2025049746, Example 209] | 56 nM | 45 nM
18 | CCc1c(N2CCN(C(=O)c3ncnc(C)c3O)CC2)c(=O)n2nc(-c3cc(F)c4c(c3)COC4(C)C)nc2n1CC(=O)Nc1ccc(C(F)(F)F)cc1Cl [WO2025049746, Example 212] | 86 nM | 73 nM
19 | CCc1c(N2CCN(C(=O)c3ncnc(C)c3O)CC2)c(=O)n2nc(-c3cc4c(cc3C)C(C)(C)OC4)nc2n1CC(=O)Nc1ccc(C(F)(F)F)cc1Cl [WO2025049746, Example 213] | 85 nM | 58 nM
20 | CCc1c(N2CCN(C(=O)c3ncnc(C)c3O)CC2)c(=O)n2nc(-c3ccc4c(c3C)COC4(C)C)nc2n1CC(=O)Nc1ccc(C(F)(F)F)cc1Cl [WO2025049746, Example 214] | 45 nM | 38 nM
21 | CCc1c(N2CCN(C(=O)c3ncnc(C)c3O)CC2)c(=O)n2nc(-c3ccc4c(c3)COC43CCC3)nc2n1CC(=O)Nc1ccc(C(F)(F)F)cc1Cl [WO2025049746, Example 215] | 48 nM | 46 nM

More lines, in order of falling IC50 [1], values ahead:

Row | IC50 [1] | IC50 [2] | SMILES
22 | 44 nM | 34 nM | CCc1c(N2CCN(C(=O)c3ncnc(C)c3O)CC2)c(=O)n2nc(-c3ccn4c(C)ncc4c3)nc2n1CC(=O)Nc1ccc(C(F)(F)F)cc1Cl [WO2025049746, Example 218]
23 | 42 nM | 39 nM | CCc1c(N2CCN(C(=O)c3ncnc(C)c3O)CC2)c(=O)n2nc(-c3ccc4c(c3)C(F)(F)CC4)nc2n1CC(=O)Nc1ccc(C(F)(F)F)cc1Cl [WO2025049746, Example 178]
24 | 40 nM | 31 nM | CCc1c(N2CCN(C(=O)c3ncnc(C)c3O)CC2)c(=O)n2nc(-c3ccc4c(c3)CO[C@H]4C)nc2n1CC(=O)Nc1ccc(C(F)(F)F)cc1Cl [WO2025049746, Example 192]
25 | 40 nM | 32 nM | CCc1c(N2CCN(C(=O)c3ncnc(C)c3O)CC2)c(=O)n2nc(-c3ccc4c(c3)CCN4C)nc2n1CC(=O)Nc1ccc(C(F)(F)F)cc1Cl [WO2025049746, Example 199]
26 | 40 nM | 32 nM | CCc1c(N2CCN(C(=O)c3ncnc(C)c3O)CC2)c(=O)n2nc(-c3cc(F)c4c(c3)COC4)nc2n1CC(=O)Nc1ccc(C(F)(F)F)cc1Cl [WO2025049746, Example 202]
27 | 39 nM | 33 nM | CCc1c(N2CCN(C(=O)c3ncnc(C)c3O)CC2)c(=O)n2nc(-c3ccc4c(c3)CC[C@@H]4OC)nc2n1CC(=O)Nc1ccc(C(F)(F)F)cc1Cl [WO2025049746, Example 207]
28 | 39 nM | 34 nM | CCc1c(N2CCN(C(=O)c3ncnc(C)c3O)CC2)c(=O)n2nc(-c3ccc4c(c3)CC[C@H]4OC)nc2n1CC(=O)Nc1ccc(C(F)(F)F)cc1Cl [WO2025049746, Example 208]
29 | 38 nM | 33 nM | CCc1c(N2CCN(C(=O)c3ncnc(C)c3O)CC2)c(=O)n2nc(-c3ccc4c(c3)C[C@H](OC)C4)nc2n1CC(=O)Nc1ccc(C(F)(F)F)cc1Cl [WO2025049746, Example 181]
30 | 38 nM | 30 nM | CCc1c(N2CCN(C(=O)c3ncnc(C)c3O)CC2)c(=O)n2nc(-c3ccc4c(c3)[C@@H](C)OC4)nc2n1CC(=O)Nc1ccc(C(F)(F)F)cc1Cl [WO2025049746, Example 190]
31 | 38 nM | 31 nM | CCc1c(N2CCN(C(=O)c3ncnc(C)c3O)CC2)c(=O)n2nc(-c3nc4c(s3)CCC4)nc2n1CC(=O)Nc1ccc(C(F)(F)F)cc1Cl [WO2025049746, Example 210]
32 | 37 nM | 31 nM | CCc1c(N2CCN(C(=O)c3ncnc(C)c3O)CC2)c(=O)n2nc(-c3ccc4c(c3)C[C@@H](OC)C4)nc2n1CC(=O)Nc1ccc(C(F)(F)F)cc1Cl [WO2025049746, Example 182]
33 | 37 nM | 37 nM | CCc1c(N2CCN(C(=O)c3ncnc(C)c3O)CC2)c(=O)n2nc(-c3ccc4c(c3F)COC4(C)C)nc2n1CC(=O)Nc1ccc(C(F)(F)F)cc1Cl [WO2025049746, Example 216]
34 | 36 nM | 27 nM | CCc1c(N2CCN(C(=O)c3ncnc(C)c3O)CC2)c(=O)n2nc(N3CCC(=C(F)F)CC3)nc2n1CC(=O)Nc1ccc(C(F)(F)F)cc1Cl [WO2025049746, Example 205]
35 | 36 nM | 32 nM | CCc1c(N2CCN(C(=O)c3ncnc(C)c3O)CC2)c(=O)n2nc(-c3cc4c(cc3F)C(C)(C)OC4)nc2n1CC(=O)Nc1ccc(C(F)(F)F)cc1Cl [WO2025049746, Example 211]
36 | 34 nM | 29 nM | CCc1c(N2CCN(C(=O)c3ncnc(C)c3O)CC2)c(=O)n2nc(-c3ccc4c(c3)[C@H](C)OC4)nc2n1CC(=O)Nc1ccc(C(F)(F)F)cc1Cl [WO2025049746, Example 189]
37 | 33 nM | 28 nM | CCc1c(N2CCN(C(=O)c3ncnc(C)c3O)CC2)c(=O)n2nc(-c3cc(C)c4c(c3)COC4)nc2n1CC(=O)Nc1ccc(C(F)(F)F)cc1Cl [WO2025049746, Example 206]
38 | 32 nM | 26 nM | CCc1c(N2CCN(C(=O)c3ncnc(C)c3O)CC2)c(=O)n2nc(-c3ccc4c(c3)CN(C)C4=O)nc2n1CC(=O)Nc1ccc(C(F)(F)F)cc1Cl [WO2025049746, Example 185]
39 | 31 nM | 30 nM | CCc1c(N2CCN(C(=O)c3ncnc(C)c3O)CC2)c(=O)n2nc(-c3ccc4cn(C)nc4c3)nc2n1CC(=O)Nc1ccc(C(F)(F)F)cc1Cl [WO2025049746, Example 177]
40 | 31 nM | 32 nM | CCc1c(N2CCN(C(=O)c3ncnc(C)c3O)CC2)c(=O)n2nc(-c3ccc4c(c3F)CCOC4)nc2n1CC(=O)Nc1ccc(C(F)(F)F)cc1Cl [WO2025049746, Example 217]
41 | 25 nM | 21 nM | CCc1c(N2CCN(C(=O)c3ncnc(C)c3O)CC2)c(=O)n2nc(-c3cc4c(cc3F)COC4)nc2n1CC(=O)Nc1ccc(C(F)(F)F)cc1Cl [WO2025049746, Example 201]
42 | 19 nM | 19 nM | CCc1c(N2CCN(C(=O)c3ncnc(C)c3O)CC2)c(=O)n2nc(-c3ccn4cncc4c3)nc2n1CC(=O)Nc1ccc(C(F)(F)F)cc1Cl [WO2025049746, Example 219]
